{"source": "patent US8304238B2", "about": "“Cell culture medium and immobilized preparation of cell adhesion protein or peptide” (Nat'l Institute for Environmental Studies, priority 2003, dated 2012)", "key": {"[1]": {"system": "alveolar type II epithelial cells (T2 cells)", "experiment": "Inhibition of T2 cell adhesion to immobilized pseudomatrices by heparin treatment", "type": "cell-based", "conditions": "Nle used instead of Met", "experimental": "Pseudomatrices prepared in Example 13 to which each cell adhesion peptide was bound (MBAC-peptide) was diluted in DMEM medium to the concentration of 1-10 μg/ml, poured into 96-wells by 100 μl each, and left still overnight in a CO2 incubator to be adsorbed and immobilized on the wells. Non-adsorbed MBAC-peptide was removed by rinsing well with DMEM medium. Next, 100 μl of DMEM in which 1 mg/ml of heparin was dissolved was poured into the wells, incubated for 2 hours to allow heparin to bind to the peptides. Control groups were treated with DMEM only. Heparin was removed after the treatment, and T2 cells suspended at the concentration of 6×10^5 cells/ml were seeded by 100 μl each. After 1-day serum-free culture, T2 cells were fixed with 100 μl of methanol for 5 minutes, and stained with 50 μl of 0.4% crystal violet for 30 minutes. Excessive staining was washed with water, and the number of adhering cells was counted based on the absorbance of cytoplasm (A595)."}, "[2]": {"system": "alveolar type II epithelial cells (T2 cells)", "experiment": "Adhesion of T2 cells to pseudomatrix adsorbed/immobilized from DMEM and competitive inhibition by free peptides", "type": "cell-based", "conditions": "for Competitive inhibition of cell adhesion to pseudomatrix by free cell adhesion peptide: pseudomatrix 1-10 μg/ml in DMEM", "experimental": "200 mg each of hydrophobic binding-adsorptive polymer, MBAC, MAST or MMAC were dispersed into water, and 1 N NaOH solution was added little by little to dissolve them completely. 50 mg of WSC (1-ethyl-3-(3-dimethylamino propyl)carbodiimide, hydrochloride) was added to the resulting solution, and the reaction was conducted for 2 hours. Subsequently, 20 mg of peptide was added, and the reaction was continued with stirring for 2 hours at room temperature. After the reaction was finished, the reactant was subjected to dialysis with water to remove alkaline and low molecules, and then freeze-dried to prepare a pseudomatrix of interest.\n(§1) Each pseudomatrix prepared in Example 13 to which cell adhesion peptide was bound (MBAC-peptide) was diluted in DMEM medium to the concentration of 1-10 μg/ml, and the resultant solution was poured into a 96-well by 100 μl each, and left still overnight in a CO2 incubator to be adsorbed and immobilized on the wells. Non-adsorbed MBAC-peptides were removed by rinsing well with DMEM medium. Next, T2 cells suspended at the concentration of 6×10^5 cells/ml were seeded in the serum-free DMEM by 100 μl each. After 1-day serum-free culture, T2 cells were fixed with 100 μl of methanol for 5 minutes, and stained with 50 μl of 0.4% crystal violet for 30 minutes. Excessive staining was washed with water, and the number of adhering cells was counted based on the absorbance of cytoplasm (A595).\nIn the same manner as in Example 14, each pseudomatrix prepared in Example 13 to which cell adhesion peptide was bound (MAST-peptide) was adsorbed and immobilized on a 96-well, and T2 cells were seeded and cultured thereon."}, "[3]": {"system": "alveolar type II epithelial cells (T2 cells)", "experiment": "Inhibition of T2 cell adhesion to immobilized pseudomatrix by treatment with polyclonal antibodies for the peptides", "type": "cell-based", "conditions": "for Inhibition of cell adhesion by anti-FIB-1 antibody: immobilized at 1 μg/ml; for Cell adhesion ability of immobilized pseudomatrix compared with coated FN: MBAC-peptide 1-10 μg/ml in DMEM; for Inhibition of cell adhesion by treatment with antibodies for the peptides: antibodies 4-10 μg/ml, 2-4 hours", "experimental": "as §1, with “μg/ml,” for “μg/ml, and the resultant solution was”, “Next, 100 μl of antibodies diluted with serum-free DMEM to the concentration of 4-10 μg/ml was poured into a well, incubated for 2-4 hours to let the antibodies bind to the peptides. Normal IgG was used for control groups. Antibodies were removed after the treatment,” for “Next,”, “seeded” for “seeded in the serum-free DMEM”"}, "[4]": {"system": "alveolar type II epithelial cells (T2 cells)", "experiment": "Adhesion of T2 cells to pseudomatrices dissolved in 50% ethanol and air-dried/immobilized, and competitive inhibition by free peptide", "type": "cell-based", "conditions": "for Adhesion of T2 cells to pseudomatrix compared with coated FN: 50% ethanol, air-dried, 0.1-1.0 μg/well, 24 hours serum-free", "experimental": "50 μl of 2-20 μg/ml MAST-GRGDSP (Gly-Arg-Gly-Asp-Ser-Pro) (SEQ ID NO: 22) and MMAC-GRGDSP (SEQ ID NO: 22) dissolved in 50% ethanol were poured into wells, and air-dried/immobilized. Next, the wells to which MAST-GRGDSP (SEQ ID NO: 22) and MMAC-GRGDSP (SEQ ID NO: 22) (0.1-1.0 μg/well) were coated were rinsed with the serum-free DMEM medium. T2 cells suspended in the medium at the concentration of 6×10^4 cells/100 μl were seeded, and cultured in a CO2 incubator at 37° C. for 24 hours. Then, the cells were fixed with methanol, stained, and measured its absorbance according to the method in Example 7. A culture wherein FN was coated as a standard material was conducted simultaneously. The cell adhesion on FN was shown as a standard (100%).\nIn the same manner as in Example 18, MAST-GRGDSP (SEQ ID NO: 22) was dissolved in 50% ethanol, air-dried/immobilized on wells, and T2 cells were seeded/cultured thereon. Separately, just before the cells were seeded, 0.25-4.0 mg/ml of free GRGDSP (SEQ ID NO: 22) peptide was added to the cell suspension, and the culture and the subsequent measurement of absorbance were conducted in the same manner as described above. […] Further, when the applied amount of MAST-GRGDSP (SEQ ID NO: 22) was decreased, the immobilized amount of GRGDSP (SEQ ID NO: 22) decreased, and the competitive inhibition by free GRGDSP (SEQ ID NO: 22) peptide worked more effectively.\n(§2) In the same manner as in Example 18, MMAC-GRGDSP (SEQ ID NO: 22) was dissolved in 50% ethanol, air-dried/immobilized on wells, and T2 cells were seeded/cultured thereon. Separately, just before the cells were seeded, 0.25-4.0 mg/ml of free GRGDSP (SEQ ID NO: 22) peptide was added to the cell suspension, and the culture and the subsequent measurement of absorbance were conducted in the same manner as described above.\nas §2, with “MBAC/MAST-AG73 and -FIB-1 were” for “MMAC-GRGDSP (SEQ ID NO: 22) was”, “0.25” for “0.25-4.0”, “AG73 or FIB-1” for “GRGDSP (SEQ ID NO: 22)”"}, "[5]": {"system": "alveolar type II epithelial cells (T2 cells)", "experiment": "Inhibition of T2 cell adhesion by anti-FIB-1 antibody after MBAC/MAST-FIB-1 in 50% ethanol is air-dried/immobilized", "type": "cell-based", "conditions": "4 μg/ml antibody 4 hours; FIB-1 concentration 0.1-0.25 μg/well", "experimental": "In the same manner as in Example 21, MBAC/MAST-FIB-1 was diluted with 50% ethanol, poured into wells, and air-dried/immobilized. Before T2 cells were seeded, 100 μl of 4 μg/ml anti-FIB-1 polyclonal antibody was poured into the well, and incubated for 4 hours to allow the antibody to bind to the immobilized FIB-1 peptide. Controls were treated with normal IgG. T2 cells were cultured, fixed, and stained in the same manner as in Example 21."}, "[6]": {"biological_target": "integrin on T2 cells (integrin α5β1)", "experiment": "reference of the ratio; T2 cell adhesion to immobilized peptides (FIGS. 8 and 9)"}, "[7]": {"biological_target": "syndecan present on the cell surface of T2 cells (alveolar type II epithelial cells)", "experiment": "T2 cell adhesion to immobilized peptides, competitive inhibition by free peptides (FIGS. 8 and 9)"}, "[8]": {"biological_target": "syndecan present on the cell surface of T2 cells (alveolar type II epithelial cells)", "experiment": "T2 cell adhesion to FIB-1 and AG73 co-immobilized on MMAC-coated wells, inhibition by free FIB-1 (FIG. 9)"}, "[9]": {"biological_target": "adhesion receptor present on the cell surface of T2 cells (not named)", "experiment": "T2 cell adhesion to immobilized peptides, competitive inhibition by free peptides (FIGS. 8 and 9)"}, "[10]": {"biological_target": "adhesion receptor present on the cell surface of T2 cells (not named)", "experiment": "T2 cell adhesion to FIB-1 and the peptide co-immobilized on MMAC-coated wells, inhibition by free FIB-1 (FIG. 9)"}, "[11]": {"biological_target": "adhesion receptor present on the cell surface of T2 cells (not named)", "experiment": "cell-based or functional assay"}}, "note": "Where no end group is shown, it is not given here. [ ]: non-standard residue; d: D form. Nle = CCCC[C@H](N)C(=O)O", "data": [{"molecule": "MBAC-A4G82X: pseudomatrix: MBAC polymer reacted with A4G82X peptide (TLFLAHGRLVF[Nle]; also: peptide reacted with MBAC polymer (pseudomatrix))", "values": [{"measurement": "Cell adhesion ability of Nle pseudomatrix compared with immobilized Met peptide", "setting": "[1]", "value": "the same level of cell adhesion ability"}, {"measurement": "Competitive inhibition of cell adhesion to pseudomatrix by free cell adhesion peptide", "setting": "[2]", "value": "inhibited by free A4G82 peptide"}]}, {"molecule": "MAST-FIB-1: pseudomatrix: MAST polymer reacted with FIB-1 peptide (YAVTGRGDSPAS)", "values": [{"measurement": "Cell adhesion ability of immobilized pseudomatrix compared with directly coated FN", "setting": "[2]; 1-10 μg/ml in DMEM, 1-day serum-free culture, excluding 1 μg/ml of MBAC-AG73", "value": "the same level of cell adhesion ability as in the case where FN was directly coated"}, {"measurement": "Competitive inhibition of cell adhesion to pseudomatrix by free cell adhesion peptide", "setting": "[2]", "value": "competitively inhibited by the free cell adhesion peptide, the degree is lower than the case of MBAC-peptide"}, {"measurement": "Inhibition of cell adhesion by anti-FIB-1 antibody", "setting": "[3]", "value": "equally inhibited"}, {"measurement": "Degree of inhibition of cell adhesion by the antibody", "setting": "[3]; immobilized at 2.5-10 μg/ml", "value": "low"}, {"measurement": "Competitive inhibition of cell adhesion by free peptide", "setting": "[4]; 50% ethanol air-dried pseudomatrix, 0.25 mg/ml free AG73 or FIB-1", "value": "worked more effectively in accordance with the decrease in the amount of immobilized FIB-1"}, {"measurement": "Adhesion of T2 cells to pseudomatrix compared with coated FN", "setting": "[4]", "value": "similarly to the case where FN was coated"}, {"measurement": "Inhibition of cell adhesion by anti-FIB-1 polyclonal antibody", "setting": "[5]", "value": "specifically inhibited by the antibody"}]}, {"molecule": "MBAC-FIB-1: pseudomatrix: MBAC polymer reacted with FIB-1 peptide (YAVTGRGDSPAS)", "values": [{"measurement": "Competitive inhibition of cell adhesion to pseudomatrix by free cell adhesion peptide", "setting": "[2]", "value": "competitively inhibited"}, {"measurement": "Cell adhesion ability of immobilized pseudomatrix compared with coated FN", "setting": "[3]", "value": "the same level of cell adhesion ability as in the case where FN was coated"}, {"measurement": "Inhibition of cell adhesion by treatment with antibodies for the peptides", "setting": "[3]", "value": "specifically inhibited"}, {"measurement": "Inhibition of cell adhesion by anti-FIB-1 antibody", "setting": "[3]", "value": "equally inhibited"}, {"measurement": "Adhesion of T2 cells to pseudomatrix compared with coated FN", "setting": "[4]", "value": "similarly to the case where FN was coated"}, {"measurement": "Inhibition of cell adhesion by anti-FIB-1 polyclonal antibody", "setting": "[5]", "value": "specifically inhibited by the antibody"}]}, {"molecule": "polymer-AG76.8X: pseudomatrix: polymer (MBAC in FIG. 14) reacted with AG76.8X peptide (TLQLQEGRLHF[Nle]; also: peptide reacted with MBAC polymer (pseudomatrix))", "values": [{"measurement": "Cell adhesion ability of Nle pseudomatrix compared with immobilized Met peptide", "setting": "[1]", "value": "the same level of cell adhesion ability"}]}, {"molecule": "polymer-A5G73X: pseudomatrix: polymer (MBAC in FIG. 14) reacted with A5G73X peptide (RNRLHLS[Nle]LVRP; also: peptide reacted with MBAC polymer (pseudomatrix))", "values": [{"measurement": "Cell adhesion ability of Nle pseudomatrix compared with immobilized Met peptide", "setting": "[1]", "value": "the same level of cell adhesion ability"}]}, {"molecule": "MBAC-AG81.2X: pseudomatrix: MBAC polymer reacted with AG81.2X peptide (VKTEYIKRKAF[Nle]; also: peptide reacted with MBAC polymer (pseudomatrix))", "values": [{"measurement": "Cell adhesion ability of Nle pseudomatrix compared with immobilized Met peptide", "setting": "[1]", "value": "the same level of cell adhesion ability"}, {"measurement": "Cell adhesion ability of immobilized pseudomatrix compared with coated FN", "setting": "[3]", "value": "the same level of cell adhesion ability as in the case where FN was coated"}, {"measurement": "Inhibition of cell adhesion by treatment with antibodies for the peptides", "setting": "[3]", "value": "specifically inhibited"}]}, {"molecule": "YAVTGRGDSPAS", "note": "[FIB-1 (Tyr-Ala-Val-Thr-Gly-Arg-Gly-Asp-Ser-Pro-Ala-Ser)]", "values": [{"measurement": "Binding strength to T2 cells, Ratio to FIB-1 (fold (ratio to FIB-1))", "setting": "[6]", "value": 1}]}, {"molecule": "RKRLQVQLSIRT", "note": "[AG73 (Arg-Lys-Arg-Leu-Gln-Val-Gln-Leu-Ser-Ile-Arg-Thr)]", "values": [{"measurement": "Binding strength to T2 cells, Ratio to FIB-1 (fold (ratio to FIB-1))", "setting": "[7]", "value": 100}, {"measurement": "mixing ratio at the transitional midpoint (peptide to FIB-1)", "setting": "[8]", "value": 0.01}]}, {"molecule": "GPLPSYLQFVGI", "note": "[A5G71 (Gly-Pro-Leu-Pro-Ser-Tyr-Leu-Gln-Phe-Val-Gly-Ile)]", "values": [{"measurement": "Binding strength to T2 cells, Ratio to FIB-1 (fold (ratio to FIB-1))", "setting": "[9]", "value": "< 1"}, {"measurement": "mixing ratio at the transitional midpoint (peptide to FIB-1)", "setting": "[10]", "value": 1}]}, {"molecule": "GRGDSP", "note": "[GRGDSP (Gly-Arg-Gly-Asp-Ser-Pro)]", "values": [{"measurement": "competitive inhibition of T2 cell adhesion to immobilized MAST-GRGDSP by free GRGDSP peptide", "setting": "[11]", "value": 4, "unit": "mg/mL"}, {"measurement": "competitive inhibition of T2 cell adhesion to immobilized MMAC-GRGDSP by free GRGDSP peptide", "setting": "[11]", "value": "1 to 4", "unit": "mg/mL"}]}]}
